ChEMBL document CHEMBL1155854, “Conformationally constrained farnesoid X receptor (FXR) agonists: Naphthoic acid-based analogs of GW 4064” (Bioorg Med Chem Lett, 2008)

Legend:
[1] = biological target: T1, Bile acid receptor (Homo sapiens, UniProt Q96RI1); test: Agonist activity at FXR expressed in african green monkey CV1 cells by luciferase reporter transient transfection assay; type: functional, cell-based, CV-1
T1 sequence (Q96RI1 whole entry): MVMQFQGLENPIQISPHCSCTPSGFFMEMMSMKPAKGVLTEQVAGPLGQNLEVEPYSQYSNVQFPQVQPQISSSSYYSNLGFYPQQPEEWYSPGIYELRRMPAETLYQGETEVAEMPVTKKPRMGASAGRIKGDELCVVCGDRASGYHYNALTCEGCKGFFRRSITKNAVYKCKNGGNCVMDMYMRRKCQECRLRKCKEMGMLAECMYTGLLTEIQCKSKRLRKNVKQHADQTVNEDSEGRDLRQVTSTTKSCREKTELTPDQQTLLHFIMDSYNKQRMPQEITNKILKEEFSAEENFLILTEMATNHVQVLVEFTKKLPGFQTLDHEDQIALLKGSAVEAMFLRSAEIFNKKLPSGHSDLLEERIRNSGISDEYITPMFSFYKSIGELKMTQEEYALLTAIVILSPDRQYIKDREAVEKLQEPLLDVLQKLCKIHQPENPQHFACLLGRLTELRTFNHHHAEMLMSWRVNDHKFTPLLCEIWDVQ

[2] = biological target: T1, Bile acid receptor; test: Agonist activity at FXR assessed as receptor-SRC-1 peptide interaction by FRET assay; type: functional
[3] = biological target: T2, Bile acid receptor (Homo sapiens) (UniProt Q96RI1); test: Agonist activity at FXR expressed in african green monkey CV1 cells by luciferase reporter transient transfection assay relative to GW-4064; type: functional, cell-based; details: CV-1
T2 sequence (whole entry): T1 sequence (Q96RI1 whole entry)

[4] = biological target: T2, Bile acid receptor (Homo sapiens); test: Agonist activity at FXR assessed as receptor-SRC-1 peptide interaction by FRET assay relative to GW-4064; type: functional

Row | EC50 [1] | EC50 [2] | %max [3] | %max [4] | Structure (SMILES)
1 | 500 nM | 420 nM | 90% | 69% | CC(C)c1onc(-c2c(Cl)cccc2Cl)c1COc1ccc(-c2ccc3ccc(C(=O)O)cc3c2)cc1
2 | 3300 nM | 2300 nM | 27% | 52% | CC(C)c1onc(-c2c(Cl)cccc2Cl)c1COc1ccc(-c2ccc3cccc(C(=O)O)c3c2)cc1
3 | 45 nM | 100 nM | 87% | 90% | CC(C)c1onc(-c2c(Cl)cccc2Cl)c1COc1ccc(-c2ccc3cc(C(=O)O)ccc3c2)cc1
